According to ChEMBL document CHEMBL1255208, “A class of novel conjugates of substituted purine and Gly-AA-OBzl: synthesis and evaluation of orally analgesic activity” (2010):

What was measured:
Type in all cases: functional
Mus musculus [1] = assay: Analgesic activity in mouse assessed as pain threshold variation at 30 umol/kg, po after 180 mins (RVb = 0.15 +/- 0.12 %)
Mus musculus [2] = assay: Analgesic activity in mouse assessed as pain threshold variation at 30 umol/kg, po after 30 mins (RVb = 0.13 +/- 0.14 %)
Mus musculus [3] = assay: Analgesic activity in mouse assessed as pain threshold variation at 30 umol/kg, po after 60 mins (RVb = 0.15 +/- 0.16 %)
Mus musculus [4] = assay: Analgesic activity in mouse assessed as pain threshold variation at 0.3 umol/kg, po after 180 mins (RVb = 0.15 +/- 0.12 %)
Mus musculus [5] = assay: Analgesic activity in mouse assessed as pain threshold variation at 30 umol/kg, po after 120 mins (RVb = 0.18 +/- 0.15 %)
Mus musculus [6] = assay: Analgesic activity in mouse assessed as pain threshold variation at 25 umol/kg, po after 120 mins (RVb = 0.69 +/- 1.98 %)
Mus musculus [7] = assay: Analgesic activity in mouse assessed as pain threshold variation at 0.3 umol/kg, po after 150 mins (RVb = 0.16 +/- 0.13 %)
Mus musculus [8] = assay: Analgesic activity in mouse assessed as pain threshold variation at 0.3 umol/kg, po after 90 mins (RVb = 0.17 +/- 0.14 %)
Mus musculus [9] = assay: Analgesic activity in mouse assessed as pain threshold variation at 3 umol/kg, po after 150 mins (RVb = 0.16 +/- 0.13 %)
Mus musculus [10] = assay: Analgesic activity in mouse assessed as pain threshold variation at 25 umol/kg, po after 90 mins (RVb = 0.2 +/- 3.75 %)
Mus musculus [11] = assay: Analgesic activity in mouse assessed as pain threshold variation at 25 umol/kg, po after 60 mins (RVb = -6.5 +/- 1.79 %)
Mus musculus [12] = assay: Analgesic activity in mouse assessed as pain threshold variation at 3 umol/kg, po after 180 mins (RVb = 0.15 +/- 0.12 %)
Mus musculus [13] = assay: Analgesic activity in mouse assessed as pain threshold variation at 30 umol/kg, po after 90 mins (RVb = 0.17 +/- 0.14 %)
Mus musculus [14] = assay: Analgesic activity in mouse assessed as pain threshold variation at 0.3 umol/kg, po after 120 mins (RVb = 0.18 +/- 0.15 %)
Mus musculus [15] = assay: Analgesic activity in mouse assessed as pain threshold variation at 25 umol/kg, po after 30 mins (RVb = -1 +/- 2.8 %)
Mus musculus [16] = assay: Analgesic activity in mouse assessed as pain threshold variation at 3 umol/kg, po after 90 mins (RVb = 0.17 +/- 0.14 %)
Mus musculus [17] = assay: Analgesic activity in mouse assessed as pain threshold variation at 0.3 umol/kg, po after 60 mins (RVb = 0.15 +/- 0.16 %)
Mus musculus [18] = assay: Analgesic activity in mouse assessed as pain threshold variation at 30 umol/kg, po after 150 mins (RVb = 0.16 +/- 0.13 %)
Mus musculus [19] = assay: Analgesic activity in mouse assessed as pain threshold variation at 25 umol/kg, po after 150 mins (RVb = 3.98 +/- 4.03 %)
Mus musculus [20] = assay: Analgesic activity in mouse assessed as pain threshold variation at 3 umol/kg, po after 60 mins (RVb = 0.15 +/- 0.16 %)
Mus musculus [21] = assay: Analgesic activity in mouse assessed as pain threshold variation at 25 umol/kg, po after 180 mins (RVb = -5.10 %)
Mus musculus [22] = assay: Analgesic activity in mouse assessed as pain threshold variation at 0.3 umol/kg, po after 30 mins (RVb = 0.13 +/- 0.14 %)
Mus musculus [23] = assay: Analgesic activity in mouse assessed as pain threshold variation at 3 umol/kg, po after 30 mins (RVb = 0.13 +/- 0.14 %)
Mus musculus [24] = assay: Analgesic activity in mouse assessed as pain threshold variation at 3 umol/kg, po after 120 mins (RVb = 0.18 +/- 0.15 %)

| Compound | Activity (Mus musculus [1]) [%] | Activity (Mus musculus [2]) [%] | Activity (Mus musculus [3]) [%] | Activity (Mus musculus [4]) [%] | Activity (Mus musculus [5]) [%] | Activity (Mus musculus [6]) [%] | Activity (Mus musculus [7]) [%] | Activity (Mus musculus [8]) [%] | Activity (Mus musculus [9]) [%] | Activity (Mus musculus [10]) [%] | Activity (Mus musculus [11]) [%] | Activity (Mus musculus [12]) [%] | Activity (Mus musculus [13]) [%] | Activity (Mus musculus [14]) [%] | Activity (Mus musculus [15]) [%] | Activity (Mus musculus [16]) [%] | Activity (Mus musculus [17]) [%] | Activity (Mus musculus [18]) [%] | Activity (Mus musculus [19]) [%] | Activity (Mus musculus [20]) [%] | other results |
| --- | --- | --- | --- | --- | --- | --- | --- | --- | --- | --- | --- | --- | --- | --- | --- | --- | --- | --- | --- | --- | --- |
| O=C(CN(c1nc(Cl)nc2c1ncn2C1CCCCO1)C1CC1)NCC(=O)OCc1ccccc1 (configuration not stated) | 10.16 | 60.84 | 45.52 | 9 | 22.31 | 17.23 | 9.45 | 11.2 | 10.04 | 25.94 | 40.44 | 9.2 | 31.04 | 10.02 | 55.72 | 20.25 | 16.24 | 12.33 | 7.26 | 29.07 | Activity (Mus musculus [21]): 0.06%; Activity (Mus musculus [22]): 18%; Activity (Mus musculus [23]): 45.27%; Activity (Mus musculus [24]): 14.53% |
| N=C(N)NCCC[C@H](NC(=O)CN(c1nc(Cl)nc2c1ncn2C1CCCCO1)C1CC1)C(=O)OCc1ccccc1 (some centres not stated) | 14.01 | 39.41 | 57.51 | 7.56 | 43.3 | 38.16 | 10.03 | 32.88 | 15 | 61.58 | 52.35 | 10.34 | 66.71 | 12.14 | 34.27 | 50.14 | 25.11 | 24.69 | 19.6 | 41.07 | Activity (Mus musculus [21]): 7.97%; Activity (Mus musculus [22]): 12.15%; Activity (Mus musculus [23]): 20.55%; Activity (Mus musculus [24]): 29.09% |
| C[C@H](NC(=O)CN(c1nc(Cl)nc2c1ncn2C1CCCCO1)C1CC1)C(=O)OCc1ccccc1 (some centres not stated) | 11 | 60.11 | 58.18 | 8.09 | 30.44 | 25.3 | 10 | 11.43 | 12 | 32.06 | 53 | 10 | 37.16 | 11.03 | 55.91 | 25.34 | 21.56 | 11.2 | 6.01 | 39.81 | Activity (Mus musculus [21]): 5.96%; Activity (Mus musculus [22]): 25.6%; Activity (Mus musculus [23]): 43.25%; Activity (Mus musculus [24]): 18.03% |
